PMC10971446 (Marine Drugs, 2024)
Where a SMILES comes first, the peptide text is derived from it. Bridges are numbered along the chain shown (N, C = ends). [ ]: non-standard residue; d: D form. pGlu = O=C1CC[C@@H](C(=O)O)N1

Key:
[1] = biological target: mouse α6/α3β4 nAChR (Mus musculus, UniProt Q8R493+Q8R4G9+Q9R0W9); format: cell-based
[2] = tested on: ACh+PNU-responsive mouse DRG neurons (α7 nAChR); format: cell-based
[3] = tested on: α7 nAChR; conditions: cited from earlier work
[4] = tested on: mouse DRG neurons; conditions: cited from earlier work

mouse α6/α3β4 nAChR, sequence (Q8R493 whole entry, looked up): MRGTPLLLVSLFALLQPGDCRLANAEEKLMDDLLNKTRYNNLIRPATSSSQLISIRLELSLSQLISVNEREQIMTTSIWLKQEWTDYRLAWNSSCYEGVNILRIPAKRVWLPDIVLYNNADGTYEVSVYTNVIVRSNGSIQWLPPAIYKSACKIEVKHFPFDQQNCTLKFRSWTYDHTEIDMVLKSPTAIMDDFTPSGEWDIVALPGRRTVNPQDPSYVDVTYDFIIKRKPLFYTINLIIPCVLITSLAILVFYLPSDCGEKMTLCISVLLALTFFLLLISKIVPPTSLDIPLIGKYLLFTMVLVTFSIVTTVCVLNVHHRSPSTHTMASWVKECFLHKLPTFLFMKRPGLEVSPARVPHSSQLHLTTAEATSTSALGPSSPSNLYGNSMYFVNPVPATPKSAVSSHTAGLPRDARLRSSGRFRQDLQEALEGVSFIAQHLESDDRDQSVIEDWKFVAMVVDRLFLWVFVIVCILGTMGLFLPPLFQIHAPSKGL
mouse α6/α3β4 nAChR, sequence (Q8R4G9 whole entry, looked up): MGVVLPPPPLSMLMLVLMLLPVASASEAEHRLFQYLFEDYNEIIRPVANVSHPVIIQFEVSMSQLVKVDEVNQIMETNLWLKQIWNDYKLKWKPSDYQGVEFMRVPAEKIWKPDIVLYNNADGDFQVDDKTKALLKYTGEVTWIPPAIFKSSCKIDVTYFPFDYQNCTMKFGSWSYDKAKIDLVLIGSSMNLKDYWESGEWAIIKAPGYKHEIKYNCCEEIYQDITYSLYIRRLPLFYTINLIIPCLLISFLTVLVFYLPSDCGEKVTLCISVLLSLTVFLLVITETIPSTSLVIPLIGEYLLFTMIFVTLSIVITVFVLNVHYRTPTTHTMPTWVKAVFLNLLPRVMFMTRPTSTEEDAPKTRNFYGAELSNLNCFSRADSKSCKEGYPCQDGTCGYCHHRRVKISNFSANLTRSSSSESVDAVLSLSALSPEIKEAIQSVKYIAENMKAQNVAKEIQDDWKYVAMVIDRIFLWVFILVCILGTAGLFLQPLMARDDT
mouse α6/α3β4 nAChR, sequence (Q9R0W9 whole entry, looked up): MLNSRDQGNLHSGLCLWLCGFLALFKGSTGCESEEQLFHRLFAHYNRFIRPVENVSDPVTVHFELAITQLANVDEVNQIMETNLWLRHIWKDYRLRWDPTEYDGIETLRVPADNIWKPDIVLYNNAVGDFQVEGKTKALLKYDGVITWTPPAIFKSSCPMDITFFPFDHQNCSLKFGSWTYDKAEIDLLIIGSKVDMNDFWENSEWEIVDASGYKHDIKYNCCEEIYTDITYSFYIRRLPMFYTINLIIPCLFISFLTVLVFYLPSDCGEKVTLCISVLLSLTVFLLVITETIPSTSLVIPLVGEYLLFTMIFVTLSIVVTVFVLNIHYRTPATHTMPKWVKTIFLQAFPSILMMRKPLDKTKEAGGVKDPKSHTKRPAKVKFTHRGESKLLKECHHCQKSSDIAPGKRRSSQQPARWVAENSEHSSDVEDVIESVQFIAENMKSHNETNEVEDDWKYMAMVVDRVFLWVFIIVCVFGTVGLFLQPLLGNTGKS

Molecule | loss of potency on α6/α3β4 compared to αCtx-PeIA [1] | calcium response to ACh alone or ACh+PNU in α7-expressing DRG neurons [2] | α7 modulation [3] | calcium response of DRG neurons to agonist [4]
CC(C)C[C@@H]1NC(=O)[C@H](CCC(=O)O)NC(=O)[C@@H]2CCCN2C(=O)[C@H](Cc2c[nH]cn2)NC(=O)[C@H](CC(N)=O)NC(=O)[C@H](C(C)C)NC(=O)[C@H](CO)NC(=O)[C@@H]2CSSC[C@H](NC(=O)CNC(=O)[C@@H]3CCC(=O)N3)C(=O)N[C@@H](CSSC[C@@H](C(=O)N[C@@H](Cc3c[nH]c4ccccc34)C(=O)O)NC1=O)C(=O)N[C@@H](CO)C(=O)N[C@@H](Cc1c[nH]cn1)C(=O)N1CCC[C@H]1C(=O)N[C@@H](C)C(=O)N2 [αCtx-AtIA] ([pGlu]GCCSHPACSVNHPELCW-OH; disulfide 3-9, 4-17) | ~ 5 fold | – | – | –
PNU-120596 | – | co-application of ACh and PNU uncovered a calcium response | α7 positive allosteric modulator | –
CC(=O)OCC[N+](C)(C)C [ACh, acetylcholine] | – | did not cause calcium influx in these cells | – | a subset of mouse DRG neurons responds to serial application of 1 mM acetylcholine (ACh) with elevation of intracellular calcium
